Results: ChEMBL document CHEMBL3808354, “Synthesis and biological evaluation of oxindole linked indolyl-pyrimidine derivatives as potential cytotoxic agents” (Bioorg Med Chem Lett, 2016)
pIC50: −log10 of the molar value. Calls of active or inactive are those of the source. The calls are words filed in the database; no cut-off is given here.

Experiments:
[1] = Cytotoxicity against human PA1 cells assessed as decrease in cell viability after 48 hrs by MTT assay; type: functional, cell-based; conditions: PA-1, 48 h
[2] = Cytotoxicity against human U87MG cells assessed as decrease in cell viability after 48 hrs by MTT assay; type: functional, cell-based, U-87MG ATCC; conditions: U-87 MG
LNCaP = experiment: Cytotoxicity against human LNCAP cells assessed as decrease in cell viability after 48 hrs by MTT assay; type: functional, cell-based
MCF7 = experiment: Cytotoxicity against human MCF7 cells assessed as decrease in cell viability after 48 hrs by MTT assay; type: functional, cell-based; conditions: MCF7, 48 h
[3] = Cytotoxicity against human RWPE1 cells assessed as decrease in cell viability after 48 hrs by MTT assay; type: cell-based; conditions: RWPE-1, 48 h
[4] = Cell cycle arrest in human PA1 cells assessed as accumulation at G2/M phase at 2.5 uM after 24 hrs by propidium iodide staining based flow cytometry (reference value: 15.72%); type: functional; conditions: PA-1
[5] = Cell cycle arrest in human PA1 cells assessed as accumulation at G2/M phase after 24 hrs by propidium iodide staining based flow cytometry; type: functional; conditions: PA-1
PA-1 [6] = experiment: Induction of morphological changes in human PA1 cells assessed as cell shrinking at 1 to 2.5 uM after 24 hrs by inverted phase contrast microscopy; type: functional, cell-based
PA-1 [7] = experiment: Induction of morphological changes in human PA1 cells assessed as cell wall deformation at 1 to 2.5 uM after 24 hrs by inverted phase contrast microscopy; type: functional, cell-based
PA-1 [8] = experiment: Antiproliferative activity against human PA1 cells assessed as reduction in viable cells at 1 to 2.5 uM after 24 hrs by inverted phase contrast microscopy; type: functional, cell-based
PA-1 [9] = experiment: Induction of cell death in human PA1 cells assessed as cell shrinking at 1 to 2.5 uM after 24 hrs by acridine orange/ethidium bromide staining based fluorescence microscopy; type: functional
PA-1 [10] = experiment: Induction of cell death in human PA1 cells assessed as membrane blebbing at 1 to 2.5 uM after 24 hrs by acridine orange/ethidium bromide staining based fluorescence microscopy; type: functional
PA-1 [11] = experiment: Induction of cell death in human PA1 cells assessed as chromatin condensation at 1 to 2.5 uM after 24 hrs by acridine orange/ethidium bromide staining based fluorescence microscopy; type: functional
PA-1 [12] = experiment: Induction of cell death in human PA1 cells assessed as apoptotic body formation at 1 to 2.5 uM after 24 hrs by acridine orange/ethidium bromide staining based fluorescence microscopy; type: functional
PA-1 [13] = experiment: Induction of apoptosis in human PA1 cells assessed as viable cells at 1 uM after 24 hrs by annexin V-FITC/propidium iodide staining based flow cytometry (reference value: 97.01%); type: functional; conditions: PA-1, 24 h, read-out: Activity
PA-1 [14] = experiment: Induction of apoptosis in human PA1 cells assessed as early apoptotic cells at 1 uM after 24 hrs by annexin V-FITC/propidium iodide staining based flow cytometry (reference value: 1.65%); type: functional
PA-1 [15] = experiment: Induction of apoptosis in human PA1 cells assessed as late apoptotic cells at 1 uM after 24 hrs by annexin V-FITC/propidium iodide staining based flow cytometry (reference value: 1.24%); type: functional
PA-1 [16] = experiment: Induction of apoptosis in human PA1 cells assessed as necrotic cells at 1 uM after 24 hrs by annexin V-FITC/propidium iodide staining based flow cytometry (reference value: 0.10%); type: functional
PA-1 [17] = experiment: Induction of apoptosis in human PA1 cells assessed as viable cells at 2.5 uM after 24 hrs by annexin V-FITC/propidium iodide staining based flow cytometry (reference value: 97.01%); type: functional; conditions: PA-1, 24 h, read-out: Activity
PA-1 [18] = experiment: Induction of apoptosis in human PA1 cells assessed as early apoptotic cells at 2.5 uM after 24 hrs by annexin V-FITC/propidium iodide staining based flow cytometry (reference value: 1.65%); type: functional
PA-1 [19] = experiment: Induction of apoptosis in human PA1 cells assessed as late apoptotic cells at 2.5 uM after 24 hrs by annexin V-FITC/propidium iodide staining based flow cytometry (reference value: 1.24%); type: functional
PA-1 [20] = experiment: Induction of apoptosis in human PA1 cells assessed as necrotic cells at 2.5 uM after 24 hrs by annexin V-FITC/propidium iodide staining based flow cytometry (reference value: 0.10%); type: functional
PA-1 [21] = experiment: Induction of apoptosis in human PA1 cells after 24 hrs by annexin V-FITC/propidium iodide staining based flow cytometry; type: functional, cell-based
[22] = Cell cycle arrest in human PA1 cells assessed as accumulation at G0/G1 phase at 1 uM after 24 hrs by propidium iodide staining based flow cytometry (reference value: 73.23%); type: functional; conditions: PA-1
[23] = Cell cycle arrest in human PA1 cells assessed as accumulation at S phase at 1 uM after 24 hrs by propidium iodide staining based flow cytometry (reference value: 10.25%); type: functional; conditions: PA-1
[24] = Cell cycle arrest in human PA1 cells assessed as accumulation at G2/M phase at 1 uM after 24 hrs by propidium iodide staining based flow cytometry (reference value: 15.72%); type: functional; conditions: PA-1
[25] = Cell cycle arrest in human PA1 cells assessed as accumulation at G0/G1 phase at 2.5 uM after 24 hrs by propidium iodide staining based flow cytometry (reference value: 73.23%); type: functional; conditions: PA-1
[26] = Cell cycle arrest in human PA1 cells assessed as accumulation at S phase at 2.5 uM after 24 hrs by propidium iodide staining based flow cytometry (reference value: 10.25%); type: functional; conditions: PA-1
[27] = Selectivity ratio of IC50 for human RWPE1 cells to IC50 for human LNCAP cells; type: ADME, cell-based; conditions: RWPE1 cells and LNCaP cells, read-out: Ratio IC50

COc1ccc(-c2ccnc(Nc3ccc4c(c3)c(/C=C3/C(=O)Nc5ccccc53)cn4C)n2)cc1
pIC50 [1]: < 4.00 | pIC50 [2]: < 4.00 | pIC50 (LNCaP): < 4.00 | pIC50 (MCF7): < 4.00

Cn1cc(/C=C2/C(=O)Nc3ccccc32)c2cc(Nc3nccc(-c4ccc(C(F)(F)F)cc4)n3)ccc21
pIC50 [1]: 4.19 | pIC50 [2]: 4.59 | pIC50 (LNCaP): < 4.00 | pIC50 (MCF7): 4.19

Cc1ccc(-c2ccnc(Nc3ccc4c(c3)c(/C=C3/C(=O)Nc5ccccc53)cn4C)n2)cc1
pIC50 [1]: < 4.00 | pIC50 [2]: < 4.00 | pIC50 (LNCaP): < 4.00 | pIC50 (MCF7): < 4.00

CCN(CC)CCNC(=O)c1c(C)[nH]c(/C=C2\C(=O)Nc3ccc(F)cc32)c1C [SUNITINIB]
pIC50 [1]: 5.10 | pIC50 [2]: 4.22 | pIC50 (LNCaP): 4.90 | pIC50 (MCF7): 4.62 | pIC50 [3]: 4.64

Cn1cc(/C=C2/C(=O)Nc3ccccc32)c2cc(Nc3nccc(-c4cccs4)n3)ccc21
pIC50 [1]: 5.10 | pIC50 [2]: 5.14 | pIC50 (LNCaP): 4.99 | pIC50 (MCF7): 4.51 | pIC50 [3]: 4.19

Cn1cc(/C=C2/C(=O)Nc3ccccc32)c2cc(Nc3nccc(-c4ccc(Cl)cc4)n3)ccc21
Activity [4]: 31.1% | Activity [5]: Dose-dependent effect | pIC50 [1]: 5.61 | pIC50 [2]: 5.24 | pIC50 (LNCaP): 5.18 | pIC50 (MCF7): 4.63 | pIC50 [3]: 4.39 | Activity (PA-1 [6]): Active | Activity (PA-1 [7]): Active | Activity (PA-1 [8]): Active | Activity (PA-1 [9]): Active | Activity (PA-1 [10]): Active | Activity (PA-1 [11]): Active | Activity (PA-1 [12]): Active | viability at 1 µM (PA-1 [13]): 75.5% | Activity (PA-1 [14]): 16.68% | Activity (PA-1 [15]): 7.42% | Activity (PA-1 [16]): 0.4% | viability at 2.5 µM (PA-1 [17]): 51.8% | Activity (PA-1 [18]): 25.18% | Activity (PA-1 [19]): 20.01% | Activity (PA-1 [20]): 3.03% | Activity (PA-1 [21]): Dose-dependent effect | Activity [22]: 67.8% | Activity [23]: 13.6% | Activity [24]: 17.6% | Activity [25]: 57.1% | Activity [26]: 10.8%

Cn1cc(/C=C2/C(=O)Nc3ccccc32)c2cc(Nc3nccc(-c4ccc(Cl)cc4Cl)n3)ccc21
pIC50 [1]: < 4.00 | pIC50 [2]: 4.43 | pIC50 (LNCaP): < 4.00 | pIC50 (MCF7): < 4.00

Cn1cc(/C=C2/C(=O)Nc3ccccc32)c2cc(Nc3nccc(-c4ccc(O)cc4)n3)ccc21
pIC50 [1]: 5.03 | pIC50 [2]: 4.88 | pIC50 (LNCaP): 4.97 | pIC50 (MCF7): 4.40 | pIC50 [3]: 4.23

Cn1cc(/C=C2/C(=O)Nc3ccccc32)c2cc(Nc3nccc(-c4ccccc4)n3)ccc21
pIC50 [1]: 4.76 | pIC50 [2]: 4.85 | pIC50 (LNCaP): 4.87 | pIC50 (MCF7): 4.37 | pIC50 [3]: 4.02

Cn1cc(/C=C2/C(=O)Nc3ccccc32)c2cc(Nc3nccc(-c4cccnc4)n3)ccc21
pIC50 [1]: 4.74 | pIC50 [2]: 4.83 | pIC50 (LNCaP): 4.85 | pIC50 (MCF7): 4.33 | pIC50 [3]: 4.16

O=c1[nH]cc(F)c(=O)[nH]1 [FLUOROURACIL]
pIC50 [1]: 5.07 | pIC50 [2]: 4.81 | pIC50 (LNCaP): 4.33 | pIC50 (MCF7): 4.49

Cn1cc(/C=C2/C(=O)Nc3ccccc32)c2cc(Nc3nccc(-c4ccc(F)cc4)n3)ccc21
pIC50 [1]: 4.50 | pIC50 [2]: 4.78 | pIC50 (LNCaP): 4.79 | pIC50 (MCF7): 4.32 | pIC50 [3]: 3.77 | selectivity ratio [27]: 10.3
